Legend:
[1] = system: G-quadruplex of oligonucleotide GGGTTAGGGTTAGGGTTAGGG (3.5 repeats of the human telomereic motif); assay: G-quadruplex stabilizing activity, fluorescence Tm (FAM+DABCYL oligonucleotide); format: binding
Text: The G-quadruplex stabilizing activity may be determined by a method using the formation of a complex with fluorescein of which the experimental protocol is described below.
All the nucleotides, modified or otherwise, were synthesized by Eurogentec SA, Seraing, Belgium. The oligonucleotide FAM+DABCYL carries the catalogue reference OL-0371-0802. It has the sequence: […] corresponding to 3.5 repeats of the human telomereic motif (strand rich in G). The fluorescein is attached to the 5′ end, the DABCYL to the 3′ end, by the chemical arms described by Eurogentec. The concentration of the samples is checked by spectrophotometry, recording the absorbance spectrum between 220 and 700 nm and using the molar extinction coefficient provided by the supplier.
All the experiments were carried out in a 10 mM sodium cacodylate buffer pH 7.6 containing 0.1 M lithium chloride (or sodium chloride). The absence of fluorescent contamination in the buffer was checked beforehand. The fluorescent oligonucleotide is added at the final concentration of 0.2 μM.
All the measurements of fluorescence were carried out on a Spex Fluorolog DM1B apparatus, using an excitation line width of 1.8 nm and an emission line width of 4.5 nm. The samples are placed in a microquartz cuvette of 0.2×1 cm. The temperature of the sample is controlled by an external water bath. The oligonucleotide alone was analysed at 20, 30, 40, 50, 60, 70 and 80° C. The emission spectra are recorded using an excitation wavelength of 470 nm. The excitation spectra are recorded using either 515 nm or 588 nm as emission wavelength. The spectra are corrected for the response of the instrument by reference curves. A high extinction (80-90%) of the fluorescence of fluorescein at room temperature is observed, in agreement with an intramolecular folding of the oligonucleotide at 20° C. in the form of a G-quadruplex, which induces juxtaposition of its 5′ and 3′ ends which are respectively linked to fluorescein and to DABCYL. This juxtaposition causes an already-described phenomenon of extinction of fluorescence which is used for “molecular beacons”.
An oligonucleotide stock solution at the strand concentration of 0.2 μM in 0.1 M LiCl, 10 mM cacodylate buffer, pH 7.6, is prepared beforehand, heated briefly at 90° C. and slowly cooled to 20° C., and then distributed in aliquots of 600 μl in the fluorescence cuvettes. 3 μl of water (for the control) or 3 μl of test product (stock at 200 μM, final concentration 1 μM) are then added and mixed. The samples are then allowed to incubate for at least 1 hour at 20° C. before each measurement. The use of longer incubation times (up to 24 hours) has no influence on the result obtained.
Each experiment allows the measurement of only one sample. The latter is first incubated at an initial temperature of 20° C., heated to 80° C. over 38 minutes, left for 5 minutes at 80° C. and then cooled to 20° C. over 62 minutes. During this time, the fluorescence is measured simultaneously at two emission wavelengths (515 nm and 588 nm) using 470 nm as excitation wavelength. A measurement is carried out every 30 seconds. The temperature of the water bath is recorded in parallel, and the fluorescence profile as a function of the temperature is reconstituted from these values. The fluorescence profiles are then normalized between 20° C. and 80° C., and the temperature for which the intensity of emission at 515 nm is the mean of those at high and low temperature is called Tm. Under these conditions, the Tm of the reference sample without addition of product is 44° C. in a lithium chloride buffer. This temperature is increased to more than 55° C. in a sodium chloride buffer. The addition of a G-quadruplex-stabilizing compound induces an increase in the Tm. This increase is judged to be significant if it is greater than 3°.

[2] = system: human telomerease (HL60 cell extract); assay: Antitelomerease activity: extension of oligonucleotide TS followed by PCR amplification, with HL60 extract; format: biochemical; details: read-out: TRAP IC50
Description: The antitelomerease biological activity is determined by the following experimental protocol:
The leukaemia line HL60 is obtained from ATCC (American Type Culture Collection, Rockville, USA). The cells are cultured in suspension in RPMI 1640 medium containing L-glutamine at 2 mM, penicillin 200 U/ml, streptomycin 200 μg/ml, gentamycin 50 μg/ml and supplemented with 10% heat-inactivated foetal calf serum.
An aliquot of 10^5 cells is centrifuged at 3000×G and the supernatant discarded. The cell pellet is resuspended by several successive pipettings in 200 μl of lysis buffer containing 0.5% CHAPS, 10 mM Tris-HCl, pH 7.5, 1 mM MgCl2, 1 mM EGTA, 5 mM β-mercaptoethanol, 0.1 mM PMSF and 10% glycerol and is stored in ice for 30 minutes. The lysate is centrifuged at 160,000×G for 20 minutes at 4° C. and 160 μl of supernatant are recovered. The proteins in the extract are assayed by the Bradford method. The extract is stored at −80° C.
The inhibition of the telomerease activity is determined by a protocol for extension of the oligonucleotide TS (^5′AATCGTTCGAGCAGAGTT^3′), in the presence of a cellular extract enriched in telomerease activity and compounds which are added at various concentrations (10, 1, 0.1 and 0.01 μM). The extension reaction is followed by a PCR amplification of the extension products with the aid of the oligonucleotides TS and CXext (^5′[…]^3′).
The reaction medium is prepared based on the following composition:
The oligonucleotides are obtained from Eurogentec (Belgium) and are stored at −20° C. at a stock concentration of 1 mg/ml in distilled water.
The reaction samples are assembled in 0.2 ml PCR tubes and one drop of paraffin oil is deposited on each of the reactions of the experiment before closing the tubes.
The reaction samples are then incubated in a Cetus 4800-type PCR apparatus under the following temperature conditions: • 15 minutes at 30° C., • 1 minute at 90° C., • followed by 30 cycles of, • 30 seconds at 94° C., • 30 seconds at 50° C., • and 1 minute 30 seconds at 72° C., • followed by a final cycle of 2 minutes at 72° C.
For each of the samples, an aliquot of 10 μl is pipetted under the oil layer and mixed with 5 μl of a loading buffer containing:
The samples are then analysed by electrophoresis on 12% acrylamide gel in a 1×TBE buffer for 1 hour at a voltage of 200 volts, with the aid of a Novex electrophoresis system.
The acrylamide gels are then dried on a sheet of Whatmann 3 mm paper at 80° C. for 1 hour.
The analysis and the quantification of the reaction products are carried out with the aid of an InstantImager apparatus (Pacard).
For each compound concentration tested, the results are expressed as percentage inhibition of the reaction and calculated from the untreated enzymatic control and from the enzyme-free sample (blank) according to the following formula: (compound value−blank value/enzymatic control value−blank value)×100.
The concentration of compound inducing a 50% inhibition of the telomerease reaction (IC50) is determined with the aid of a semilogarithmic graphical representation of the inhibition values obtained as a function of each of the compound concentrations tested.
A compound is considered to be active as an antitelomerease agent when the quantity inhibiting 50% of the telomerease reaction is in particular less than 5 μM.

Structure (SMILES)	G4 delta Tm [1]	IC50 [2]
Cc1cc(N)c2cc(Nc3nc(NCc4ccc(Cl)cc4)nc(Nc4ccc5nc(C)cc(N)c5c4)n3)ccc2n1 [Example 67]	6.5 °C	430 nM
Cc1cc(N)c2cc(Nc3nc(Nc4ccc5nc(C)cc(N)c5c4)nc(N4CCN(CCOCCO)CC4)n3)ccc2n1 [Example 69]	18 °C	160 nM
Cc1cc(N)c2cc(Nc3nc(Nc4ccc5nc(C)cc(N)c5c4)nc(N4CCCCC4CN4CCCCC4)n3)ccc2n1 (stereo not shown) [Example 70]	9.5 °C	560 nM
Cc1cc(N)c2cc(Nc3nc(Nc4ccc5nc(C)cc(N)c5c4)nc(N4CCN(C(=O)C5CCCO5)CC4)n3)ccc2n1 (stereo not shown) [Example 72]	9.5 °C	210 nM
COCCN1CCN(c2nc(Nc3ccc4nc(C)cc(N)c4c3)nc(Nc3ccc4nc(C)cc(N)c4c3)n2)CC1 [Example 73]	9.5 °C	370 nM
Cc1cc(N)c2cc(Nc3nc(NCCN4CCN(Cc5ccccc5)CC4)nc(Nc4ccc5nc(C)cc(N)c5c4)n3)ccc2n1 [Example 74]	9.5 °C	140 nM
Cc1cc(N)c2cc(Nc3nc(Nc4ccc5nc(C)cc(N)c5c4)nc(N4CCN(CCN5CCCC5)CC4)n3)ccc2n1 [Example 75]	13.5 °C	50 nM
Cc1cc(N)c2cc(Nc3nc(Nc4ccc5nc(C)cc(N)c5c4)nc(N4CCCN(CCCN5CCCC5)CC4)n3)ccc2n1 [Example 76]	19 °C	110 nM
Cc1cc(N)c2cc(Nc3nc(Nc4ccc5nc(C)cc(N)c5c4)nc(N4CCN(CCN(C)C)CC4)n3)ccc2n1 [Example 88]	6 °C	110 nM
Cc1cc(N)c2cc(Nc3nc(NCCN4CCCCC4)nc(Nc4ccc5nc(C)cc(N)c5c4)n3)ccc2n1 [Example 90]	11 °C	370 nM
Cc1cc(N)c2cc(Nc3nc(NCCNC(C)C)nc(Nc4ccc5nc(C)cc(N)c5c4)n3)ccc2n1 [Example 91]	7 °C	370 nM
Cc1cc(N)c2cc(Nc3nc(Nc4ccc5nc(C)cc(N)c5c4)nc(Nc4cccc5ccc(C)nc45)n3)ccc2n1 [Example 98]	4 °C	350 nM
CCN(CC)CCOc1nc(Nc2ccc3nc(C)cc(N)c3c2)nc(Nc2ccc3nc(C)cc(N)c3c2)n1 [Example 106]	14.5 °C	280 nM
Cc1cc(N)c2cc(Nc3nc(Nc4ccc5nc(C)cc(N)c5c4)nc(Oc4cccc5ccccc45)n3)ccc2n1 [Example 107]	4.5 °C	370 nM
Cc1cc(N)c2cc(Nc3nc(Nc4ccc5nc(C)cc(N)c5c4)nc(Oc4ccc5ccccc5c4)n3)ccc2n1 [Example 108]	3 °C	370 nM
Cc1cc(C)nc(Oc2nc(Nc3ccc4nc(C)cc(N)c4c3)nc(Nc3ccc4nc(C)cc(N)c4c3)n2)n1 [Example 109]	4.5 °C	340 nM
Cc1cc(N)c2cc(Nc3nc(Nc4ccc5nc(C)cc(N)c5c4)nc(Oc4ccccn4)n3)ccc2n1 [Example 110]	20.5 °C	610 nM
Cc1cc(N)c2cc(Nc3nc(Nc4ccc5nc(C)cc(N)c5c4)nc(Oc4ncccn4)n3)ccc2n1 [Example 111]	23.5 °C	480 nM
COCCOc1nc(Nc2ccc3nc(C)cc(N)c3c2)nc(Nc2ccc3nc(C)cc(N)c3c2)n1 [Example 112]	15 °C	320 nM
COc1ccc(COc2nc(Nc3ccc4nc(C)cc(N)c4c3)nc(Nc3ccc4nc(C)cc(N)c4c3)n2)cc1 [Example 113]	6 °C	530 nM
Cc1cc(N)c2cc(Nc3nc(Nc4ccc5nc(C)cc(N)c5c4)nc(OCc4ccccn4)n3)ccc2n1 [Example 114]	13.5 °C	1260 nM
COc1cccc(Sc2nc(Nc3ccc4nc(C)cc(N)c4c3)nc(Nc3ccc4nc(C)cc(N)c4c3)n2)c1 [Example 122]	13.5 °C	370 nM
COC(=O)CSc1nc(Nc2ccc3nc(C)cc(N)c3c2)nc(Nc2ccc3nc(C)cc(N)c3c2)n1 [Example 125]	14.5 °C	360 nM
CCN(CC)CCSc1nc(Nc2ccc3nc(C)cc(N)c3c2)nc(Nc2ccc3nc(C)cc(N)c3c2)n1 [Example 130]	9 °C	300 nM
CCN(CCSc1nc(Nc2ccc3nc(C)cc(N)c3c2)nc(Nc2ccc3nc(C)cc(N)c3c2)n1)Cc1ccccc1 [Example 131]	4.5 °C	910 nM
Cc1cc(N)c2cc(Nc3nc(Nc4ccc5nc(C)cc(N)c5c4)nc(SCCN(C)C)n3)ccc2n1 [Example 132]	12.5 °C	400 nM
Cc1cc(N(C)C)c2cc(Nc3nc(Nc4ccc5nc(C)cc(N(C)C)c5c4)nc(Sc4ccc5ccccc5n4)n3)ccc2n1 [Example 133, 2,4-bis(4-dimethylamino-2-methylquinolin-6-yl)amino-6-(quinolin-2-yl)thio-[1,3,5]triazine]	25 °C	180 nM
Cc1cc(N)c2cc(Nc3nc(Nc4ccc5nc(C)cc(N)c5c4)nc(N4CCC(O)C4)n3)ccc2n1 (stereo not shown) [Example 153]	10 °C	410 nM
Cc1cc(N)c2cc(Nc3nc(Nc4ccc5nc(C)cc(N)c5c4)nc(N4CCN(CCO)CC4)n3)ccc2n1 [Example 154]	19 °C	200 nM
